# Laboratory results taken from ChEMBL document CHEMBL4813977, “Discovery of potent colony-stimulating factor 1 receptor inhibitors by replacement of hinge-binder moieties” (Eur J Med Chem, 2021).
# The source made the active and inactive calls. The calls are words filed in the database; no cut-off is given here.
# How the values were obtained:
# [1] = target: Mast/stem cell growth factor receptor Kit (Homo sapiens) (UniProt P10721); conditions: dose 10.0 nM
# Description: Inhibition of human c-KIT at 10 nM using poly[Glu:Tyr] (4:1) as substrate in presence of [gamma-33P]-ATP by radiometric assay relative to control
# [2] = target: Mast/stem cell growth factor receptor Kit (Homo sapiens) (UniProt P10721); conditions: dose 100.0 nM
# Description: Inhibition of human c-KIT at 100 nM using poly[Glu:Tyr] (4:1) as substrate in presence of [gamma-33P]-ATP by radiometric assay relative to control
# [3] = target: Receptor-type tyrosine-protein kinase FLT3 (Homo sapiens) (UniProt P36888); conditions: dose 10.0 nM
# [4] = target: Receptor-type tyrosine-protein kinase FLT3 (Homo sapiens) (UniProt P36888); conditions: dose 100.0 nM
# [5] = target: Macrophage colony-stimulating factor 1 receptor (Homo sapiens) (UniProt P07333); conditions: dose 10.0 nM
# Description: Inhibition of human CSF1R at 10 nM using poly[Glu:Tyr] (4:1) as substrate in presence of [gamma-33P]-ATP by radiometric assay relative to control
# [6] = target: T1, Macrophage colony-stimulating factor 1 receptor (Mus musculus) (UniProt P09581); assay: Inhibition of CSF1R phosphorylation in mouse RAW 264.7 cells at 10 to 100 nM preincubated for 5 hrs followed by CSF stimulation for 10 mins by Western blot analysis; type: cell-based; conditions: RAW264.7, dose 10-100 nM, time 310.0 min
# T1 sequence (whole entry): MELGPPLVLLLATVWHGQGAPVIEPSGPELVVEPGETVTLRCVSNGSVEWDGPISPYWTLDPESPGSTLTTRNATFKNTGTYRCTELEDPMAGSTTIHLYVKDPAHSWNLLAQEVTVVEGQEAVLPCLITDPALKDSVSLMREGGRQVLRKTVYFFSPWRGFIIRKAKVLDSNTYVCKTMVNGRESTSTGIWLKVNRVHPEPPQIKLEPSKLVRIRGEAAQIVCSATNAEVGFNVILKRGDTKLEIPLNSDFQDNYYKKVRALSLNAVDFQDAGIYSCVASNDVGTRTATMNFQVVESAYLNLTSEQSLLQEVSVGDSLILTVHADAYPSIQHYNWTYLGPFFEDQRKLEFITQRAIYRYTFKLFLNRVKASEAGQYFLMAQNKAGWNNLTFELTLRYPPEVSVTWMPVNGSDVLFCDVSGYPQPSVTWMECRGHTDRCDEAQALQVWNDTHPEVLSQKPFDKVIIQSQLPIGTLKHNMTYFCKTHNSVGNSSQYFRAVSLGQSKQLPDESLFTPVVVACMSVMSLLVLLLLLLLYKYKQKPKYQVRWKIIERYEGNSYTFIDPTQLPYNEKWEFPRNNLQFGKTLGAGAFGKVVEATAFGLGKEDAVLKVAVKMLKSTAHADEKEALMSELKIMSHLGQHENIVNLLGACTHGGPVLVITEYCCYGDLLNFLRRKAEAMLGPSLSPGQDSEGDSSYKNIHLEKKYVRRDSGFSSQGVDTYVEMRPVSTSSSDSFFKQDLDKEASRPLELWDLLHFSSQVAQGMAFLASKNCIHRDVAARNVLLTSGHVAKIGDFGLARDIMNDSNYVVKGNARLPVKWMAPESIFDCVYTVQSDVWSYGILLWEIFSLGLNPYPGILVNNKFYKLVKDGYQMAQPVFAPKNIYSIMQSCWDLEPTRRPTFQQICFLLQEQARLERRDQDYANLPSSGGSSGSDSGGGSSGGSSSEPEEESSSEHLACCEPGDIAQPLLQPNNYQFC
# [7] = target: Macrophage colony-stimulating factor 1 receptor (Homo sapiens) (UniProt P07333); conditions: dose 100.0 nM
# Description: Inhibition of human CSF1R at 100 nM using poly[Glu:Tyr] (4:1) as substrate in presence of [gamma-33P]-ATP by radiometric assay relative to control
# Sequence of Macrophage colony-stimulating factor 1 receptor (Homo sapiens) (P07333 whole entry): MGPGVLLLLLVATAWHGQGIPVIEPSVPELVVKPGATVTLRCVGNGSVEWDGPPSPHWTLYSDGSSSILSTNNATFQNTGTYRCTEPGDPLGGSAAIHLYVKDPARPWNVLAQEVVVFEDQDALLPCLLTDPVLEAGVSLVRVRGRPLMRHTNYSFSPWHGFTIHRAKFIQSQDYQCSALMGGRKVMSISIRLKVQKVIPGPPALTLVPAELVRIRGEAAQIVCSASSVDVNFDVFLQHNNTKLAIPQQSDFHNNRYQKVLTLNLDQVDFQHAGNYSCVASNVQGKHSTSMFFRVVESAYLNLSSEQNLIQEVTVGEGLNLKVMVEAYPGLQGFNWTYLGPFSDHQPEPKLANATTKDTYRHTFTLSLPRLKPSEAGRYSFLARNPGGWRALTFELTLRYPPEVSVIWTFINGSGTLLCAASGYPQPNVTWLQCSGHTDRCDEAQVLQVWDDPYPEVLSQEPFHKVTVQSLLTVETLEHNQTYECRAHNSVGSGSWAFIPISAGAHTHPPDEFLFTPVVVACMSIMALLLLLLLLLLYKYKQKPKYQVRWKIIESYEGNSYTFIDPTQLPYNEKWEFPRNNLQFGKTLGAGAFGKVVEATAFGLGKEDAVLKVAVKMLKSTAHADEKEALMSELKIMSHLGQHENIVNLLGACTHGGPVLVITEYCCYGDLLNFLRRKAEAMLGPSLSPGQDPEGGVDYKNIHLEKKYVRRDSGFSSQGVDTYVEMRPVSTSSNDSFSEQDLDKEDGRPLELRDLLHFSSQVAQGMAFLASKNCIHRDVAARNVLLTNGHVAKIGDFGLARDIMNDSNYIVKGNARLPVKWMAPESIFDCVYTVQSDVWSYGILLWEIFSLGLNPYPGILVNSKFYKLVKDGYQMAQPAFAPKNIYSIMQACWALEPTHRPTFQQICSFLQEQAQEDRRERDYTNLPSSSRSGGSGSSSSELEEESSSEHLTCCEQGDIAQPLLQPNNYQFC
# Sequence of Mast/stem cell growth factor receptor Kit (Homo sapiens) (P10721 whole entry): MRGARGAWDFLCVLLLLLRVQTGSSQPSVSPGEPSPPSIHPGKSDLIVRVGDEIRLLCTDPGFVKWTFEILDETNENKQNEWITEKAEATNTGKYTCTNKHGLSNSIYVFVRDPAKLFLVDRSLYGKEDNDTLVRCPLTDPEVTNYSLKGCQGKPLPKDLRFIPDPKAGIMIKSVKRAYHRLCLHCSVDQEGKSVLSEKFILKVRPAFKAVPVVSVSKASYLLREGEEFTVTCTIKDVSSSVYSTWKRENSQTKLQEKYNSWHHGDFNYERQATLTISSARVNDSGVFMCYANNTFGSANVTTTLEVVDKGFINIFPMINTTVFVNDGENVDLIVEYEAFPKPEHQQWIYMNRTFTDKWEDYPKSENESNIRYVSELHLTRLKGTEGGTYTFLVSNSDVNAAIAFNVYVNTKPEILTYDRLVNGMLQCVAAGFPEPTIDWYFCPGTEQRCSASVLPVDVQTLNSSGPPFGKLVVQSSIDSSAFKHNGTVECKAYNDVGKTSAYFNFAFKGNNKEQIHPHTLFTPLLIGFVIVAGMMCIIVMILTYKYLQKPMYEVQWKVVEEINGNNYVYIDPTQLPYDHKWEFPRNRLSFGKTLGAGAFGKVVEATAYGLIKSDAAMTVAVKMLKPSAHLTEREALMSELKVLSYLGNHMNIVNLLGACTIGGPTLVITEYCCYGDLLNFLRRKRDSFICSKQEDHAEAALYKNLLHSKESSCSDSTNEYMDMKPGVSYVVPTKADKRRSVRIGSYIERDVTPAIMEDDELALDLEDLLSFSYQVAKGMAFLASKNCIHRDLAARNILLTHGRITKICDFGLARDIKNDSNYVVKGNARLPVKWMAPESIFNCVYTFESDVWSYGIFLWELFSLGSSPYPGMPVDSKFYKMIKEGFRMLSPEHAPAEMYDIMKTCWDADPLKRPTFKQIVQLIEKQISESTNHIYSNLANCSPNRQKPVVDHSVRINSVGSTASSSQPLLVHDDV
# Sequence of Receptor-type tyrosine-protein kinase FLT3 (Homo sapiens) (P36888 whole entry): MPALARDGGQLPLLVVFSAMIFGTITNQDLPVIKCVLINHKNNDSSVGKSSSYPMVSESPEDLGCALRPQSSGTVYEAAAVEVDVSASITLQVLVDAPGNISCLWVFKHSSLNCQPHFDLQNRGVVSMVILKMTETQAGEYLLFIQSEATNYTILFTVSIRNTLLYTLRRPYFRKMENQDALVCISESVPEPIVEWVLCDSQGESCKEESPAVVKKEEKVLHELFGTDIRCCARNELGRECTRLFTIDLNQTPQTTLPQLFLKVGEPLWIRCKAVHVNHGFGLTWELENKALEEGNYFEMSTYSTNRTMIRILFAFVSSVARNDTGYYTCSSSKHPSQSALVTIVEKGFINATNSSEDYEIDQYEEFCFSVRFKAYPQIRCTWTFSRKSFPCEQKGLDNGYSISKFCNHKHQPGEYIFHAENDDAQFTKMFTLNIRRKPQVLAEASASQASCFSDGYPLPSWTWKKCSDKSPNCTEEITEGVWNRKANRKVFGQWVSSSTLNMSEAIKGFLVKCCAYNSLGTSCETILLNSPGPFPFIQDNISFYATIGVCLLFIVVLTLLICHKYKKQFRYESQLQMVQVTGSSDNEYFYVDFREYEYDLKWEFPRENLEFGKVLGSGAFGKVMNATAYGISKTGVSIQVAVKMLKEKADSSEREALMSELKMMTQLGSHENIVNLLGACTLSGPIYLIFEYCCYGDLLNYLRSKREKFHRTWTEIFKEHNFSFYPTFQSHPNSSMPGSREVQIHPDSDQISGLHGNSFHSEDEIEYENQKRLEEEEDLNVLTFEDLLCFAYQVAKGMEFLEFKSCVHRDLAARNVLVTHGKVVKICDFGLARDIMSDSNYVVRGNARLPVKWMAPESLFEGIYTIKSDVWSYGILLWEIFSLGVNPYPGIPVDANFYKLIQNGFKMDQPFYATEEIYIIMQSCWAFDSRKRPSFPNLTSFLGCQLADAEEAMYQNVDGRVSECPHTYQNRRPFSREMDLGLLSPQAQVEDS
SMILES,inhibition [1] [%],inhibition [2] [%],inhibition [3] [%],inhibition [4] [%],inhibition [5] [%],inhibition [6],inhibition [7] [%]
CCN1CCN(Cc2ccc(C(=O)Nc3ccc(C)c(NC(=O)c4cnnc5ccccc45)c3)cc2C(F)(F)F)CC1,10,40,–,–,–,–,–
CCN1CCN(Cc2ccc(C(=O)Nc3ccc(C)c(NC(=O)c4ccn(C)n4)c3)cc2C(F)(F)F)CC1,14,54,–,–,–,–,–
CCN1CCN(Cc2ccc(C(=O)Nc3ccc(C)c(NC(=O)c4cnc5cccnn45)c3)cc2C(F)(F)F)CC1,27,64,–,–,–,–,–
Cc1cn(-c2cc(NC(=O)c3ccc(C)c(Nc4nccc(-c5cccnc5)n4)c3)cc(C(F)(F)F)c2)cn1,2,33,0,4,14,–,–
Cc1cn(-c2cc(NC(=O)c3ccc(C)c(NC(=O)c4cnc5cccnn45)c3)cc(C(F)(F)F)c2)cn1,7,50,–,–,–,–,–
CCN1CCN(Cc2ccc(C(=O)Nc3ccc(C)c(NC(=O)c4cnc5ccccn45)c3)cc2C(F)(F)F)CC1,30,70,–,–,–,–,–
CCN1CCN(Cc2ccc(C(=O)Nc3ccc(C)c(NC(=O)c4cnc5ncccn45)c3)cc2C(F)(F)F)CC1,10,49,–,–,–,–,–
CCN1CCN(Cc2ccc(C(=O)Nc3ccc(C)c(NC(=O)c4cc[nH]n4)c3)cc2C(F)(F)F)CC1,0,17,–,–,–,–,–
CCN1CCN(Cc2ccc(NC(=O)c3ccc(C)c(NC(=O)c4cnc5cccnn45)c3)cc2C(F)(F)F)CC1,96,98,–,–,–,–,–
Cc1ccc(NC(=O)c2ccc(C(F)(F)F)nc2)cc1NC(=O)c1cnn2ccccc12,30,53,–,–,–,Active,–
Cc1ccc(NCc2ccc(C(F)(F)F)nc2)cc1NC(=O)c1cnn2ccccc12,17,45,–,–,–,–,–
CNC(=O)c1cc(Oc2ccc3nc(N[C@H]4CCCC[C@H]4O)sc3c2)ccn1,2,2,19,20,76,–,94
CCN1CCN(Cc2ccc(C(=O)Nc3ccc(C)c(NC(=O)c4c[nH]cn4)c3)cc2C(F)(F)F)CC1,41,89,–,–,–,–,–
FC(F)(F)c1ccc(CNc2ccc(Cc3c[nH]c4ncc(Cl)cc34)cn2)cn1,13,51,1,11,–,–,–
Cc1cn(-c2cc(NC(=O)c3ccc(C)c(NC(=O)c4cnc5ccccn45)c3)cc(C(F)(F)F)c2)cn1,0,33,–,–,–,–,–
Cc1ccc(NCc2ccc(C(F)(F)F)nc2)cc1NC(=O)c1cnc2cccnn12,6,25,–,–,–,–,–
CCN1CCN(Cc2ccc(C(=O)Nc3ccc(C)c(NC(=O)c4n[nH]c5ccccc45)c3)cc2C(F)(F)F)CC1,43,89,–,–,–,–,–
CCN1CCN(Cc2ccc(C(=O)Nc3ccc(C)c(NC(=O)c4ncc[nH]4)c3)cc2C(F)(F)F)CC1,31,81,–,–,–,–,–
CCN1CCN(Cc2ccc(C(=O)Nc3ccc(C)c(NC(=O)c4cnn5ccccc45)c3)cc2C(F)(F)F)CC1,27,73,–,–,–,–,–
CCN1CCN(Cc2ccc(C(=O)Nc3ccc(C)c(NCc4cnc5ccc(OC)nn45)c3)cc2C(F)(F)F)CC1,25,63,–,–,–,–,–
Cc1ccc(NC(=O)c2ccc(C(F)(F)F)nc2)cc1NC(=O)c1cnc2cccnn12,4,32,–,–,–,–,–
CCN1CCN(Cc2ccc(C(=O)Nc3ccc(C)c(NC(=O)c4n[nH]c5ncccc45)c3)cc2C(F)(F)F)CC1,96,98,–,–,–,–,–
CCN1CCN(Cc2ccc(C(=O)Nc3ccc(C)c(NCc4cnc5cccnn45)c3)cc2C(F)(F)F)CC1,22,49,–,–,–,–,–
COc1ccc(COc2ccc(Cc3cnc(N)nc3N)cc2OC)cc1,4,8,4,11,–,–,–
Cc1ccc(NCc2ccc(C(F)(F)F)nc2)cc1NC(=O)c1cnc2ccccn12,14,56,–,–,–,–,–
